Results: patent publication US7745572B2, “Peptides effective in the treatment of tumors and other conditions requiring the removal or destruction of cells” (Qualcomm Incorporated, priority 2001, dated 2010)

Tested on: rat prostate
Assay: Intraprostatic infusion in rats, prostate volume and histology at 72 hours
Assay type: in vivo, Sprague-Dawley rats
Conditions: 1 mg/mL in PBS pH 7.4 (1.0 mg/kg)
Experimental: Male Sprague-Dawley rats (300 gram weight range) were anesthetized with ether and given NTP[122] peptide #1 by intraprostatic infusion after open surgical visualization of the prostate. The injections consisted of 300 μl of NTP[122] peptide #1, 1 mg/mL in PBS pH 7.4. (1.0 mg/kg) (n=8), control injections of PBS alone (n=6), and controls with no injection (n=2). Rats were painlessly sacrificed after 72 hours. Prostate glands were dissected, fixed in 10%, buffered formalin for 24 hours, embedded in paraffin, sectioned, and stained with H & E. For each animal the entire prostate gland was embedded and sectioned. All stained sections were examined histologically and measured. For each prostate at least 4 histological sections were examined, and for each histological section two cross-sectional diameters (D) at 90° from each other were measured (total of ≧8 measurements per prostate). […]
Male Sprague-Dawley rats (300 gram weight range) were anesthetized with ether and given NTP[112] peptide #1 by intraprostatic infusion after open surgical visualization of the prostate. […] All stained sections were examined histologically and measured. For each prostate at least 4 histological sections were examined, and for each histological section two cross-sectional diameters (D) at 90° from each other were measured (total of ≧8 measurements per prostate). […]

| Sequence | prostate histology (H & E) |
| --- | --- |
| IDQQVLSRIKLEIKRCL (listed as Homo sapiens) [NTP[122] peptide #1] | extensive loss of glandular epithelium, flattening and atrophy |
| MAQSRLTATSASRVQ (listed as Homo sapiens) [NTP[112] peptide #1] | significant cell loss and atrophy |
